Columns and labels:
Test in all cases: pIC50, competition of probe 3 labelling in live cells
Conditions in all cases: cell material: Jurkat cells
[1] = target: CAMK1D (UniProt Q8IU85)
[2] = target: CDK2 (UniProt P24941)
[3] = target: T1, MAP4K2 (UniProt Q12851)
T1 sequence (whole entry): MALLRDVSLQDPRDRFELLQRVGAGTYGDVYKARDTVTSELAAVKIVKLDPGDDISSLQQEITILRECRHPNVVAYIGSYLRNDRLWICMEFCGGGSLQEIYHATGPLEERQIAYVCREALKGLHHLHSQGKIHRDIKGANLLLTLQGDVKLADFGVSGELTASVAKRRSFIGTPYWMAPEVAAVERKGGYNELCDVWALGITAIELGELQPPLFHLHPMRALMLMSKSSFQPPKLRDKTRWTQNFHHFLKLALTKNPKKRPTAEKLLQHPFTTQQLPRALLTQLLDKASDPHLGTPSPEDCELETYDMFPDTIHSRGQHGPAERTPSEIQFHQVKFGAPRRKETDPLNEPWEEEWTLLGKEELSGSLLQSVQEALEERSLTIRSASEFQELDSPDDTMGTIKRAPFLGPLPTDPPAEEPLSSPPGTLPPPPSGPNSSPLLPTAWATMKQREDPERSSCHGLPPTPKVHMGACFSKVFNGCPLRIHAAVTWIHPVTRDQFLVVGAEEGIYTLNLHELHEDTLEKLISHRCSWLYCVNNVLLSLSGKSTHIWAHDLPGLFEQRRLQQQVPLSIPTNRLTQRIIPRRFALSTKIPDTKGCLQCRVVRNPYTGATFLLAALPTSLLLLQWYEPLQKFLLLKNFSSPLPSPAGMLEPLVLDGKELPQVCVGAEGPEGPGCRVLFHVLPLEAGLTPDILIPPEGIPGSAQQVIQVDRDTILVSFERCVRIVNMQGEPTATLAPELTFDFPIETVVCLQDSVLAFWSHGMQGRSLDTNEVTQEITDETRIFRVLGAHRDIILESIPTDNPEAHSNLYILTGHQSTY

[4] = target: RIPK1 (UniProt Q13546)
Sequence of RIPK1 (Q13546 whole entry): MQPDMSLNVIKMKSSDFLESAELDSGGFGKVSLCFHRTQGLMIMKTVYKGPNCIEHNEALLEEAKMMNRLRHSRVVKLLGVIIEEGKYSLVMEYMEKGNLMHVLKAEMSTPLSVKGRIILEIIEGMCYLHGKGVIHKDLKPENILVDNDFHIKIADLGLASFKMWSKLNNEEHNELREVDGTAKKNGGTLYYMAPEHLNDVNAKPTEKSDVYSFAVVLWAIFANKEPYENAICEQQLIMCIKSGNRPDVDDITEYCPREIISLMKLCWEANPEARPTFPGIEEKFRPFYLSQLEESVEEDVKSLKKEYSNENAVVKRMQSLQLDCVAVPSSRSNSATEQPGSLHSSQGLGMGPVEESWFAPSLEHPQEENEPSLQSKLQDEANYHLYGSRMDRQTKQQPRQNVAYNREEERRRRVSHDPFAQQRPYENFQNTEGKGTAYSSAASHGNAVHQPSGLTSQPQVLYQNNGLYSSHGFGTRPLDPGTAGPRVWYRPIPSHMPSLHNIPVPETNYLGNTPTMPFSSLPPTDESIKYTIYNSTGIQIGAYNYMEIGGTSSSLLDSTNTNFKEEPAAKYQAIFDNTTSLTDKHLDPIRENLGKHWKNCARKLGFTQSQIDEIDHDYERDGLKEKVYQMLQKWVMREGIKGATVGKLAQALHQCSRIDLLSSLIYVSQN

[5] = target: UniProt P45984
[6] = target: UniProt P49840
Sequence of UniProt P49840 (P49840 whole entry, looked up): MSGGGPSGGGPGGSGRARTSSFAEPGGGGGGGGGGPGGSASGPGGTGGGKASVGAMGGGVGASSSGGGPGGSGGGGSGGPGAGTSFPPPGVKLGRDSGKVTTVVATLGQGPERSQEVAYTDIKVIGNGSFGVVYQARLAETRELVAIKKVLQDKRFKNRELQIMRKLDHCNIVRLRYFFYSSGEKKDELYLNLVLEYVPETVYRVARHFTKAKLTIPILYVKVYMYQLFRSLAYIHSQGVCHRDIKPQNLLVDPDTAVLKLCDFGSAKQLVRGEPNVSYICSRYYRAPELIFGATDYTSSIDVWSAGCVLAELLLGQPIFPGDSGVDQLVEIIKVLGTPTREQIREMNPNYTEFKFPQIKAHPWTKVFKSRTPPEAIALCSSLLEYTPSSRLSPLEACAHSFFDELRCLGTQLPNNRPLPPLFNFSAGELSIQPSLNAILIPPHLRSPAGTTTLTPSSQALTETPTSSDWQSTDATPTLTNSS

[7] = target: CASP6 (UniProt P55212)
[8] = target: CES3 (UniProt Q6UWW8)
Sequence of CES3 (Q6UWW8 whole entry): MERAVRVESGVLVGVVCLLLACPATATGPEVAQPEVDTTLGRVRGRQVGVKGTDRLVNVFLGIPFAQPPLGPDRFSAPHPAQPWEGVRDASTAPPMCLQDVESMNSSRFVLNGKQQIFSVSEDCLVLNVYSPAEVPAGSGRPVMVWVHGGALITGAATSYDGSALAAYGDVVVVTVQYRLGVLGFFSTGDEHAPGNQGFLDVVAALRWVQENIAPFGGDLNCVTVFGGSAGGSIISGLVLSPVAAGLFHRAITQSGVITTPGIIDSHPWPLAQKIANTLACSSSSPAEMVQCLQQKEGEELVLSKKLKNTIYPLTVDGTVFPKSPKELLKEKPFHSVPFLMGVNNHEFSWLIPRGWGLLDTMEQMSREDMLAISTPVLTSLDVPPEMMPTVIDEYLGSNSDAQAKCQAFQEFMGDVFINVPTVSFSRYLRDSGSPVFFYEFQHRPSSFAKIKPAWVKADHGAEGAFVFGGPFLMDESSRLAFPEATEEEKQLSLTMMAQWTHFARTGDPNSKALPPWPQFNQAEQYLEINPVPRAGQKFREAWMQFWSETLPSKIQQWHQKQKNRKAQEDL

[9] = target: CLK3 (UniProt P49761)
[10] = target: CTSA (UniProt P10619)
[11] = target: FTO (UniProt Q9C0B1)
[12] = target: MAST3 (UniProt O60307)
[13] = target: RABGGTB (UniProt P53611)
Sequence of RABGGTB (P53611 whole entry): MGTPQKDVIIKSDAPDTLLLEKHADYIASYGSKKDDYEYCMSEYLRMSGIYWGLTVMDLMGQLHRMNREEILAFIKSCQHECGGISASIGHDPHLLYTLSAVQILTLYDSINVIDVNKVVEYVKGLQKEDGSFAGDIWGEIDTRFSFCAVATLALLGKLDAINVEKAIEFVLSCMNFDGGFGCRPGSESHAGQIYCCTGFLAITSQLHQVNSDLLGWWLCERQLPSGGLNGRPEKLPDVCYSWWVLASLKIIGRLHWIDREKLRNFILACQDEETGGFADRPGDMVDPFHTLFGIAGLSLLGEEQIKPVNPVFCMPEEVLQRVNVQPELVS

[14] = target: SCCPDH (UniProt Q8NBX0)
[15] = target: UniProt O75582
Sequence of UniProt O75582 (O75582 whole entry, looked up): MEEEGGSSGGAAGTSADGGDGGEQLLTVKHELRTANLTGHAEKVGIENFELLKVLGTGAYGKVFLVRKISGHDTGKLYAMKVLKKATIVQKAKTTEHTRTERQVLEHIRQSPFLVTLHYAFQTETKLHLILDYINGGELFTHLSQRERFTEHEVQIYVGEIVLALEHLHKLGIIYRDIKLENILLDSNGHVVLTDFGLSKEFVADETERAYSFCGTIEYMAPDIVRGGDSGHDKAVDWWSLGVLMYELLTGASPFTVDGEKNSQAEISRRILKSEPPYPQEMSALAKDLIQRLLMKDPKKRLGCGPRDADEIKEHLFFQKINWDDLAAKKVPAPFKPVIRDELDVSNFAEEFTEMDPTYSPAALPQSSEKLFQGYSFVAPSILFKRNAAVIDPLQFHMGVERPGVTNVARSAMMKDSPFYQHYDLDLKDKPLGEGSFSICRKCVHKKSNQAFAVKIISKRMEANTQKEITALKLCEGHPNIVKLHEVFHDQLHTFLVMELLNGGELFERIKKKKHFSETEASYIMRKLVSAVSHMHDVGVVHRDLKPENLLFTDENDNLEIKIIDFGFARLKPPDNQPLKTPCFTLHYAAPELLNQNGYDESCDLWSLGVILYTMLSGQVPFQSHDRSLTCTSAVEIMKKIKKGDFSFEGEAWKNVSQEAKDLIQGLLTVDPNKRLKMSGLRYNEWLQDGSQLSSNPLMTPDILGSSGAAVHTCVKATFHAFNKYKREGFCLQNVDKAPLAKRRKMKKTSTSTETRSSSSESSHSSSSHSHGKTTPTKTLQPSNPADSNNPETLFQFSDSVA

[16] = target: UniProt P19525
Sequence of UniProt P19525 (P19525 whole entry): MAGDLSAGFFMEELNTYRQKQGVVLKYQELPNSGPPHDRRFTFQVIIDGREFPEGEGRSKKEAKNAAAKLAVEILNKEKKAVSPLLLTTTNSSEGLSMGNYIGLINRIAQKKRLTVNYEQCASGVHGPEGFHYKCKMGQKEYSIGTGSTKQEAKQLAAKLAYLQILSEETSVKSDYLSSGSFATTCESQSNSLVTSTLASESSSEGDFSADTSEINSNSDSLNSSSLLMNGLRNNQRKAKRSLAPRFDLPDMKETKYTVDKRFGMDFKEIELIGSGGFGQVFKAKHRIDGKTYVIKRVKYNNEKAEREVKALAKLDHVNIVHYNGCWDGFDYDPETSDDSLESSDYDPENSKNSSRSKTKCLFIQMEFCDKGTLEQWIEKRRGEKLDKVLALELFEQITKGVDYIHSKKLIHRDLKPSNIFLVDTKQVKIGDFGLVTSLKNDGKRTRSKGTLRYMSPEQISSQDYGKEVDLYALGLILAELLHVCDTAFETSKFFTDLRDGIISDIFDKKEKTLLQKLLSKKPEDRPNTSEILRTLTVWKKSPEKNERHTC

[17] = target: UniProt P27361
[18] = target: UniProt P28482
Sequence of UniProt P28482 (P28482 whole entry): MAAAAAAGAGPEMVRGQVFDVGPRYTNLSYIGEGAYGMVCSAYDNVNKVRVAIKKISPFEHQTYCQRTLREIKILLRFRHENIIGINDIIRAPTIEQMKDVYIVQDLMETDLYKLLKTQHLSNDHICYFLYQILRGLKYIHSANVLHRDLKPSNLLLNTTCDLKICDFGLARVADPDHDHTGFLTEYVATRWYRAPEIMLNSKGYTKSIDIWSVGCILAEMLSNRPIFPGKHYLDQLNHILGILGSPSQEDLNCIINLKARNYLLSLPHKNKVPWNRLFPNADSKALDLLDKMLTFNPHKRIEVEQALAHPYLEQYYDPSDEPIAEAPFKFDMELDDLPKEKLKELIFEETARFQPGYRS

[19] = target: T2, UniProt Q13043
T2 sequence (whole entry): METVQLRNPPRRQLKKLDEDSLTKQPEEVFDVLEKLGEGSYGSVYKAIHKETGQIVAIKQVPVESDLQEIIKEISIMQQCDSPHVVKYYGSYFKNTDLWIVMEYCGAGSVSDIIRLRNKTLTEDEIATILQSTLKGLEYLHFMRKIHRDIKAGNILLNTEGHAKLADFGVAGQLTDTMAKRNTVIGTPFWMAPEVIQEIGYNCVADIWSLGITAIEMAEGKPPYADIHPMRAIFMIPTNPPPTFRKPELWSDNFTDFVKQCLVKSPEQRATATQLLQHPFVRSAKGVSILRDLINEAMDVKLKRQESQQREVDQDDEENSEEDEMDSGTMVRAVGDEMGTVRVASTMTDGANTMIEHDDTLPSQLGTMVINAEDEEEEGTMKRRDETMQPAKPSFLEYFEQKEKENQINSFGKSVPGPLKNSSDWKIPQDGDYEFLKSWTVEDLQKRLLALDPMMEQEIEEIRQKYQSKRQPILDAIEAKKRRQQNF

[20] = target: T3, UniProt Q13188
T3 sequence (whole entry): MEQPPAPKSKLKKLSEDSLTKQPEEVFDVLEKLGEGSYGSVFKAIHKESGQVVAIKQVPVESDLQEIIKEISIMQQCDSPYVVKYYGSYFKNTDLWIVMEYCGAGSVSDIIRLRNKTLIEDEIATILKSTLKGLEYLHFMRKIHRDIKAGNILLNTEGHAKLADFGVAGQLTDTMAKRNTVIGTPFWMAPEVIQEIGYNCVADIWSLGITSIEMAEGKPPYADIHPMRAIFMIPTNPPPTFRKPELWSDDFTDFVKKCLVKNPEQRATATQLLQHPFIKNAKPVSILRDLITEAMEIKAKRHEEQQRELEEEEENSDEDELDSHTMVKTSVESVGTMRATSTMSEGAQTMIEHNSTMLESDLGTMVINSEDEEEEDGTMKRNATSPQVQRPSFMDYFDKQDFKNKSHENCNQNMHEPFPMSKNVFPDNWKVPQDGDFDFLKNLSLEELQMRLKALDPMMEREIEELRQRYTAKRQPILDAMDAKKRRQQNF

[21] = target: UniProt Q92918
Sequence of UniProt Q92918 (Q92918 whole entry, looked up): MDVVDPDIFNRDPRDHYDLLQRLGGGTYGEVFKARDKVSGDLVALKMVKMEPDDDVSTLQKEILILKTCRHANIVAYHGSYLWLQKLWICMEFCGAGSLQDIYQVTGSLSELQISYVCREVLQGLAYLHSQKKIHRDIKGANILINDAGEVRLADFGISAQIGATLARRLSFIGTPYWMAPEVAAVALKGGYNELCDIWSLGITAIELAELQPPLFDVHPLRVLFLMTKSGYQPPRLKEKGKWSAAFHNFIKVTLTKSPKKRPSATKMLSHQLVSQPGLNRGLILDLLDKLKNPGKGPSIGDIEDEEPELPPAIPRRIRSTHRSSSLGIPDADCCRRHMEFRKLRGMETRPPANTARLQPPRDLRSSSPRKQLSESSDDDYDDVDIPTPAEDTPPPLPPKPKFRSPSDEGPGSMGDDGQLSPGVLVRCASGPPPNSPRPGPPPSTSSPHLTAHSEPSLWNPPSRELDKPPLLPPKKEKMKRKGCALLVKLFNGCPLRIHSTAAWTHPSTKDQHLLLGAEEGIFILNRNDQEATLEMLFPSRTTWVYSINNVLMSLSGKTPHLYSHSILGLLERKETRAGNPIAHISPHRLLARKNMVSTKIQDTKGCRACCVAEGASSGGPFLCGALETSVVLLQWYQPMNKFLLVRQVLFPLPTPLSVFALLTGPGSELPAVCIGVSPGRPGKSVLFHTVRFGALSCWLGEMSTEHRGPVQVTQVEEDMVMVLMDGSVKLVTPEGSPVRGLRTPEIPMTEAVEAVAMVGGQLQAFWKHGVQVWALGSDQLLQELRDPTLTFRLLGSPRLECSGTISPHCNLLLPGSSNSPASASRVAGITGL

Sequence of CAMK1D (Q8IU85 whole entry, looked up): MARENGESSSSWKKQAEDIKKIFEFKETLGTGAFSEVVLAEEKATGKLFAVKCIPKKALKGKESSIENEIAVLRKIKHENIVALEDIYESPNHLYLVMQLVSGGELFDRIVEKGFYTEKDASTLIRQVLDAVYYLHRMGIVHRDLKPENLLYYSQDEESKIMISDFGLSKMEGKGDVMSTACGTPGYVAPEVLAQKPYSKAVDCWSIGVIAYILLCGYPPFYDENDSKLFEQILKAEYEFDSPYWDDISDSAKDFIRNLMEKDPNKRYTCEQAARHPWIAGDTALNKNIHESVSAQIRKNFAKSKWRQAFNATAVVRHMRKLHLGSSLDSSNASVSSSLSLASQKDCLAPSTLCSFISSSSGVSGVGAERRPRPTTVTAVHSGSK

| Compound | pIC50 [1] | pIC50 [2] | pIC50 [3] | pIC50 [4] | pIC50 [5] | pIC50 [6] | pIC50 [7] | pIC50 [8] | pIC50 [9] | pIC50 [10] | pIC50 [11] | pIC50 [12] | pIC50 [13] | pIC50 [14] | pIC50 [15] | pIC50 [16] | pIC50 [17] | pIC50 [18] | pIC50 [19] | pIC50 [20] | pIC50 [21] |
| --- | --- | --- | --- | --- | --- | --- | --- | --- | --- | --- | --- | --- | --- | --- | --- | --- | --- | --- | --- | --- | --- |
| CC#CC(=O)Nc1ccc2ncnc(Nc3cccc(Br)c3)c2c1 [EKI-785] | < 4.52 | < 4.52 | < 4.52 | < 4.52 | 4.6 | < 4.52 | – | – | – | – | – | – | – | – | – | – | – | – | – | – | – |
| CCc1cnn2c(NCc3ccc[n+]([O-])c3)cc(N3CCCC[C@H]3CCO)nc12 [dinaciclib] | – | – | – | – | – | – | < 4.52 | < 4.52 | < 4.52 | < 4.52 | < 4.52 | < 4.52 | < 4.52 | < 4.52 | < 4.52 | < 4.52 | < 4.52 | < 4.52 | < 4.52 | < 4.52 | < 4.52 |

Source: the supplement of paper PMC12076712
